Results published in US9229013B2, “Vasoactive hormone-based stratification of patients suffering from diseases related to endothelial function/dysfunction” (B.R.A.H.M.S GMBH, priority 2009, dated 2016).
Marks after values point to notes of the source that are not given here.

Assays:
[1] = tested on: patients having suffered a myocardial infarction; assay: LAMP study (Outcome Death): hazard ratio medication vs no medication, stratified by biomarker quintile; type: in vivo, human; conditions: for HR Medicament in Marker-Quantile 1 / HR Medicament in Marker-Quantile 2-4 / HR Medicament in Marker-Quantile 5 / HR Medicament (overall patient group): LAMP, Outcome Death
Excerpt: (§1) Suitable threshold levels for the stratification of subjects into different groups (categories) have to be determined for each particular combination of vasoactive hormone or fragments thereof or precursors or fragments thereof, medication and disease. This can e.g. be done by grouping a reference population of patients according to their level of vasoactive hormone into certain quantiles, e.g. tertiles, quartiles, quintiles or even according to suitable percentiles. […] A HR around 1 (e.g. +/−0.1) indicates no elevated risk but also no benefit from medication for the particular group of patients.
(§2) FIGS. 14 to 21 illustrate the survival rate for patients suffering from myocardial infarction from the “Leicester Acute Myocardial Infarction Peptide Study” (“LAMP”). FIGS. 22 to 34 illustrate the rate of major cardiac events for patients suffering from acute myocardial infarction from “LAMP-Study”.
Acute myocardial infarction was subcategorized into ST-segment elevation myocardial infarction (STEMI) or non-ST-segment myocardial infarction (NSTEMI).
(§3) Blood samples were drawn on 1 occasion 3 to 5 days after the onset of chest pain. After 15 min bed rest, 20 ml blood was collected into tubes containing ethylendiaminetetraacetic acid (EDTA) and aprotinin. All plasma samples were stored at −70° C. until assayed in a blinded fashion in a single batch.
(§4) Survival rates, i.e. the proportion of patients surviving at a given time after entry into the studies, are plotted in the appended figures over time for different combinations of a particular vasoactive hormone with a particular medication. The patients have been stratified into quintiles according to their respective hormone levels. […] For some cases, two or more quintiles have been pooled were appropriate. Hazard ratios (HR) have been calculated for various combinations of particular vasoactive hormones with particular medications. HR have also been calculated for particular quintiles and/or pooled quintiles and compared to overall HR for each combination.

[2] = tested on: patients having suffered from ischemic or haemorrhagic stroke or TIA; assay: COSMOS study: survival (deaths), hazard ratio medication vs no medication, stratified by biomarker quintile; type: in vivo, human; conditions: for effect of administration at high (higher) levels of vasoactive hormones / effect of administration at low (lower) levels of vasoactive hormones: COSMOS study, summary of Table 2; for HR Medicament Marker-Quintile 5 / HR Medicament Marker-Quintile 1 / HR Medicament Marker-Quintile 2-4 / HR Medicament (overall patient group): COSMOS
Excerpt: as §1, with “patients. By comparison of the HR between certain quantiles of patients with each other and with the HR of the overall population of patients, it is possible to identify those quantiles of patients who have an elevated risk and those who benefit from medication and thereby stratify subjects according to the present invention.” for “patients.”
FIGS. 9 to 13 illustrate the survival rate for patients suffering from ischemic stroke, hemorrhagic stroke or transient ischemic attack from the “Copeptin to guide disease severity and Management, Osmostatus and Stress” (“COSMOS”).
The study was set at the emergency and neurological and neurosurgical clinic of the University Hospital of Basel. All consecutive patients who are admitted to the emergency department with an ischemic or hemorrhagic stroke or transient ischemic attack (TIA) according to the World Health Organization criteria with symptom onset within the last 3 days were included into the study. Patients without an informed consent were excluded.
Step 5. In patients with ischemic stroke a telephone follow-up regarding morbidity and mortality (as assessed by the Barthel Index and Ranking Scale) will be obtained after 3 months. An unfavorable outcome will be defined as a Barthel index <85 or modified Ranking scale of 3 to 6. II) Post-Myocardial Infarction (MI) Patients (Leicester Acute Myocardial Infarction Peptide Study (“LAMP”)) Study Population:
as §4
Table 2 lists the results for the patients from the COSMOS study (patients having suffered from ischemic or haemorrhagic stroke or TIA).

[3] = tested on: patients having suffered a myocardial infarction; assay: LAMP study (Outcome MACE): hazard ratio medication vs no medication, stratified by biomarker quintile; type: in vivo, human
Excerpt: as §1, with “patients. By comparison of the HR between certain quantiles of patients with each other and with the HR of the overall population of patients, it is possible to identify those quantiles of patients who have an elevated risk and those who benefit from medication and thereby stratify subjects according to the present invention.” for “patients.”
as §2
The study involved 983 consecutive patients with acute myocardial infarction (AMI) admitted to the Coronary Care Unit of Leicester Royal Infirmary. […] Acute myocardial infarction was subcategorized into ST-segment elevation myocardial infarction (STEMI) or non-ST-segment myocardial infarction (NSTEMI).
as §3, with “batch. In a subgroup of 132 patients from the original 983-patient cohort, blood sampling was performed daily for 5 days from admission to discharge.” for “batch.”
as §4

[4] = tested on: patients with chronic ischemic left ventricular dysfunction; conditions: patients exhibiting a higher pre-treatment plasma NT-proBNP and adrenomedullin (ADM); cited from earlier work
[5] = tested on: patients with severe congestive heart failure in NYHA class IV; conditions: mortality after 6 months; patients stratified by peptide concentrations below and above median; cited from earlier work

CC(=O)Oc1ccccc1C(=O)O [Acetylsalicylic acid]
HR Medicament in Marker-Quantile 1 ([1]; CT-proAVP 0.31-4.6 pmol/L): >100
HR Medicament in Marker-Quantile 2-4 ([1]; CT-proAVP 4.6-42.1 pmol/L): 0.4
HR Medicament in Marker-Quantile 5 ([1]; CT-proAVP 42.1-1040 pmol/L): 0.3
HR Medicament in Marker-Quantile 1 ([1]; MR-proADM 0.035-0.47 nmol/L): >100
HR Medicament in Marker-Quantile 2-4 ([1]; MR-proADM 0.47-1.18 nmol/L): 0.5
HR Medicament in Marker-Quantile 5 ([1]; MR-proADM 1.18-6.75 nmol/L): 0.3
HR Medicament in Marker-Quantile 1 ([1]; MR-proANP 14.5-59.6 pmol/L): >100
HR Medicament in Marker-Quantile 2-4 ([1]; MR-proANP 59.6-283 pmol/L): 0.4
HR Medicament in Marker-Quantile 5 ([1]; MR-proANP 283-1650 pmol/L): 0.4
HR Medicament in Marker-Quantile 1 ([1]; NT-proBNP 0.12-184 pg/mL): >100
HR Medicament in Marker-Quantile 2-4 ([1]; NT-proBNP 184-2700 pg/mL): 0.3
HR Medicament in Marker-Quantile 5 ([1]; NT-proBNP 2700-34100 pg/mL): 0.5
HR Medicament (overall patient group) ([1]; biomarker CT-proAVP): 0.3
HR Medicament (overall patient group) ([1]; biomarker MR-proADM): 0.3
HR Medicament (overall patient group) ([1]; biomarker MR-proANP): 0.3
HR Medicament (overall patient group) ([1]; biomarker NT-proBNP): 0.3
effect of administration at high (higher) levels of vasoactive hormones [2]: unfavourable effect
effect of administration at low (lower) levels of vasoactive hormones [2]: positive effect
HR Medicament Marker-Quintile 5 ([2]; CT-proAVP 23.5-499 pmol/L): 2.6
HR Medicament Marker-Quintile 1 ([2]; CT-proET-1 4.5-55.5 pmol/L): 0.5
HR Medicament Marker-Quintile 2-4 ([2]; CT-proET-1 55.5-93.1 pmol/L): 1.5
HR Medicament Marker-Quintile 5 ([2]; CT-proET-1 93.1-368 pmol/L): 2.5
HR Medicament Marker-Quintile 1 ([2]; MR-proADM 0.05-0.47 nmol/L): 0.6
HR Medicament Marker-Quintile 2-4 ([2]; MR-proADM 0.47-0.91 nmol/L): 0.7
HR Medicament Marker-Quintile 5 ([2]; MR-proADM 0.91-5.49 nmol/L): 2.4
HR Medicament Marker-Quintile 1 ([2]; MR-proANP 20.8-71.6 pmol/L): <0.1
HR Medicament Marker-Quintile 2-4 ([2]; MR-proANP 71.6-240 pmol/L): 1.7
HR Medicament Marker-Quintile 5 ([2]; MR-proANP 240-1560 pmol/L): 2.3
HR Medicament Marker-Quintile 2-4 ([2]; Quintiles 1 to 4 are pooled, CT-proAVP 0.69-23.5 pmol/L): 0.8*
HR Medicament (overall patient group) ([2]; biomarker CT-proAVP): 1.3
HR Medicament (overall patient group) ([2]; biomarker CT-proET-1): 1.4
HR Medicament (overall patient group) ([2]; biomarker MR-proADM): 1
HR Medicament (overall patient group) ([2]; biomarker MR-proANP): 1.3
deaths with medication ([2]; FIG. 12A, marker MR-proANP, overall population, n=209 with medication): 20
deaths with medication ([2]; FIG. 12B, 1st MR-proANP quintile (22.3-69.5 pmol/L), n=51 with medication): 0
deaths with medication ([2]; FIG. 12C, 2nd to 4th MR-proANP quintiles (69.5-250 pmol/L), n=124 with medication): 6
deaths with medication ([2]; FIG. 12D, 5th MR-proANP quintile (250-1540 pmol/L), n=34 with medication): 14

O=C(NCCO[N+](=O)[O-])c1cccnc1 [Nicorandil]
HR Medicament in Marker-Quantile 1 ([1]; NT-proBNP 0.3-204 pg/mL): 4.8
HR Medicament in Marker-Quantile 2-4 ([1]; NT-proBNP 204-3160 pg/mL): <0.1
HR Medicament in Marker-Quantile 5 ([1]; NT-proBNP 3160-11800 pg/mL): 0.5
HR Medicament (overall patient group) ([1]; biomarker NT-proBNP): 0.5
HR Medicament in Marker-Quantile 1 ([3]; CT-proET-1 4.6-56.6 pmol/L): 7.1
HR Medicament in Marker-Quantile 2-4 ([3]; CT-proET-1 56.6-118 pmol/L): 1.2
HR Medicament in Marker-Quantile 5 ([3]; CT-proET-1 118-671 pmol/L): 0.7
HR Medicament (overall patient group) ([3]; biomarker CT-proET-1): 1.2

O=[N+]([O-])O [Nitrate]
deaths with medication ([1]; FIG. 16A, marker CT-proAVP, overall population, n=494 with medication): 23
deaths with medication ([1]; FIG. 16B, 1st CT-proAVP quintile (0.31-4.6 pmol/L), n=69 with medication): 2
deaths with medication ([1]; FIG. 16C, 2nd to 4th CT-proAVP quintiles (4.6-42.1 pmol/L), n=318 with medication): 11
deaths with medication ([1]; FIG. 16D, 5th CT-proAVP quintile (42.1-1040 pmol/L), n=107 with medication): 10
HR Medicament in Marker-Quantile 1 ([1]; CT-ET-1 3.7-65.4 pmol/L): 1
HR Medicament in Marker-Quantile 2-4 ([1]; CT-ET-1 65.4-136 pmol/L): 1
HR Medicament in Marker-Quantile 5 ([1]; CT-ET-1 136-468 pmol/L): 0.3
HR Medicament in Marker-Quantile 1 ([1]; CT-proAVP 0.31-4.6 pmol/L): 4.8
HR Medicament in Marker-Quantile 2-4 ([1]; CT-proAVP 4.6-42.1 pmol/L): 0.7
HR Medicament in Marker-Quantile 5 ([1]; CT-proAVP 42.1-1040 pmol/L): 0.3
HR Medicament in Marker-Quantile 1 ([1]; MR-proANP 14.5-59.6 pmol/L): >100
HR Medicament in Marker-Quantile 2-4 ([1]; MR-proANP 59.6-283 pmol/L): 0.9
HR Medicament in Marker-Quantile 5 ([1]; MR-proANP 283-1650 pmol/L): 0.3
HR Medicament in Marker-Quantile 1 ([1]; NT-proBNP 0.12-184 pg/mL): 1.9
HR Medicament in Marker-Quantile 2-4 ([1]; NT-proBNP 184-2700 pg/mL): 0.6
HR Medicament in Marker-Quantile 5 ([1]; NT-proBNP 2700-34100 pg/mL): 0.5
HR Medicament (overall patient group) ([1]; biomarker CT-ET-1): 0.6
HR Medicament (overall patient group) ([1]; biomarker CT-proAVP): 0.5
HR Medicament (overall patient group) ([1]; biomarker MR-proANP): 0.5
HR Medicament (overall patient group) ([1]; biomarker NT-proBNP): 0.7
HR Medicament in Marker-Quantile 1 ([3]; CT-proAVP 0.3-3.6 pmol/L): 2.8
HR Medicament in Marker-Quantile 2-4 ([3]; CT-proAVP 3.6-18.7 pmol/L): 1.2
HR Medicament in Marker-Quantile 5 ([3]; CT-proAVP 18.7-441 pmol/L): 0.6
HR Medicament in Marker-Quantile 1 ([3]; CT-proET-1 4.6-56.6 pmol/L): 2.4
HR Medicament in Marker-Quantile 2-4 ([3]; CT-proET-1 56.6-118 pmol/L): 0.9
HR Medicament in Marker-Quantile 5 ([3]; CT-proET-1 118-671 pmol/L): 0.9
HR Medicament in Marker-Quantile 1 ([3]; MR-proADM 0.09-0.53 nmol/L): 2.4
HR Medicament in Marker-Quantile 2-4 ([3]; MR-proADM 0.53-1.16 nmol/L): 0.9
HR Medicament in Marker-Quantile 5 ([3]; MR-proADM 1.16-6.95 nmol/L): 1
HR Medicament in Marker-Quantile 1 ([3]; MR-proANP 4.9-65 pmol/L): 3.8
HR Medicament in Marker-Quantile 2-4 ([3]; MR-proANP 65-264 pmol/L): 1
HR Medicament in Marker-Quantile 5 ([3]; MR-proANP 264-1630 pmol/L): 0.8
HR Medicament in Marker-Quantile 1 ([3]; NT-proBNP 0.12-184 pg/mL): 2.4
HR Medicament in Marker-Quantile 2-4 ([3]; NT-proBNP 184-2700 pg/mL): 0.8
HR Medicament in Marker-Quantile 5 ([3]; NT-proBNP 2700-34100 pg/mL): 0.9
HR Medicament (overall patient group) ([3]; biomarker CT-proAVP): 1.1
HR Medicament (overall patient group) ([3]; biomarker CT-proET-1): 1.1
HR Medicament (overall patient group) ([3]; biomarker MR-proADM): 1.1
HR Medicament (overall patient group) ([3]; biomarker MR-proANP): 1.1
HR Medicament (overall patient group) ([3]; biomarker NT-proBNP): 1

COC(=O)[C@H](c1ccccc1Cl)N1CCc2sccc2C1 [Plavix]
effect of administration at high (higher) levels of vasoactive hormones [2]: positive effect
effect of administration at low (lower) levels of vasoactive hormones [2]: unfavourable effect
HR Medicament Marker-Quintile 1 ([2]; MR-proADM 0.05-0.47 nmol/L): 1.8
HR Medicament Marker-Quintile 2-4 ([2]; MR-proADM 0.47-0.91 nmol/L): 0.2
HR Medicament Marker-Quintile 5 ([2]; MR-proADM 0.91-5.49 nmol/L): 0.1
HR Medicament (overall patient group) ([2]; biomarker MR-proADM): 0.3

COc1ccccc1OCCNCC(O)COc1cccc2[nH]c3ccccc3c12 (stereo not drawn) [carvedilol]
effect on mortality and heart failure [4]: reduced mortality and heart failure

CCOC(=O)[C@H](CCc1ccccc1)N[C@@H](C)C(=O)N1CCC[C@H]1C(=O)O [elanapril]
effect on mortality [5]: beneficial effect
